Results reported in PMC9646673, “A Novel, Orally Bioavailable, Small-Molecule Inhibitor of PCSK9 With Significant Cholesterol-Lowering Properties In Vivo” (Journal of Lipid Research, 2022).
Read-outs that look alike come from different tables or passages of the source.

Tests used:
hepatic LDLR protein [1] = experiment: First efficacy study: hepatic LDLR protein (Western blotting); type: in vivo, mouse; conditions: day 28
Text: (§1) Animal experiments were approved by the governmental central committee on animal experiments (AVD5010020172064) and TNO’s animal welfare body (TNO-471 and TNO-482). Female APOE∗3-Leiden.CETP transgenic mice (11–16 weeks of age) were bred at the animal facility of TNO-InnoSer (Leiden, The Netherlands). Female animals were used in this study as they are more responsive to dietary cholesterol and fat than males and therefore typically develop atherosclerosis more rapidly than male APOE∗3-Leiden and APOE∗3-Leiden.CETP mice on cholesterol-containing diets ([33], [34]). […] Body weight, food intake, and clinical signs of behavior were monitored throughout the studies. […]
Treatment times were around 8:00 am and 4:00 pm each day. Throughout the in-life phase of the study, body weight and food intake (per cage) were measured at regular predetermined intervals while blood samples were collected every 7 days. […] Throughout the study, plasma cholesterol, triglycerides, HDL-C, lipoprotein profiles, PCSK9 expression levels, aspartate transaminase levels (AST), and alanine transaminase levels (ALT) were measured as described below.
The transcript levels of select genes in the liver tissue of mice treated with either vehicle or NYX-PCSK9i were analyzed. […] Differential transcriptional activity was calculated using the 2^–ΔΔCt method.

[2] = system: Hmgcr, Srebf2, Pcsk9, Ldlr, Mttp transcripts in liver tissue; experiment: Hepatic gene transcription (qPCR), day 35; type: in vivo, mouse; conditions: 50 mg/kg BID PO, 5 weeks
Method: The transcript levels of select genes in the liver tissue of mice treated with either vehicle or NYX-PCSK9i were analyzed. RNA was isolated from liver tissue using an RNA STAT-60 kit as per the manufacturer’s protocol. RNA concentrations were determined using a NanoDrop 2000 spectrophotometer (Thermo Fisher Scientific, Rockford, IL), and up to 2 μg of RNA was used as a template for cDNA synthesis using a High-capacity RNA-to-cDNA kit according to the manufacturer’s instructions. Quantitative PCR was performed with fluorescein amidite-labeled TaqMan® Assay primers and TaqMan® Fast Universal PCR Master Mix using a QuantStudio 6 Flex Real-Time PCR system (Applied Biosystems). DNA was amplified by applying a standard cycle protocol with an annealing temperature of 60°C and 40 cycles of amplification. Differential transcriptional activity was calculated using the 2^–ΔΔCt method.

[3] = Pharmacokinetic study, single dose PO/SC/IV; type: in vivo, female C57BL/6 mice; conditions: female, C57BL/6, mouse, plasma; for AUC(0-inf): read-out: AUC Infinity; for MRT inf: read-out: MRT Infinity
Method: Pharmacokinetic study protocols were reviewed and approved by the Institutional Animal Care and Use Committee of ChemPartner (Shanghai, China) under ethics A998HL0119. Female C57BL/6 mice aged 10–14 weeks (18–21 g) were purchased from Jihui Laboratory Animal Co. Ltd. (Shanghai, China) and were given ad libitum access to water and food throughout the in-life phase of the studies. […] At designated timepoints (t = 0.083, 0.25, 0.5, 1, 2, 4, 8, and 24 h), the animals were manually restrained, and 110 μl of blood per timepoint was collected into precooled EDTA-K2 tubes via the facial vein. […] Bioavailability was determined by comparing the plasma exposure levels (AUClast) of NYX-PCSK9i when given orally with plasma exposure levels obtained via the IV route.

APOE∗3-Leiden.CETP mice [4] = experiment: Fecal bile acid and neutral sterol content, cholesterol balance
Method: In a subsequent efficacy study, mice were treated identically to the first study with the following modifications. Mice in group 1 received vehicle solution (5% DMSO, 5% Solutol HS15, and 90% saline) twice daily by oral gavage. […] The study ran for a total of 35 days with blood and tissue collection and analysis performed as described below.
Analyses of fecal neutral sterol and bile acid contents were performed by gas chromatographic analysis as previously detailed ([37], [38]). Per treatment group, two cages of four mice per cage were used, with feces collected twice per cage during the last week of the study. The net cholesterol uptake, or cholesterol balance, was defined as the dietary cholesterol intake (food intake measured weekly) minus the summed fecal output of neutral sterols and bile acids.

[5] = system: plasma PCSK9 protein levels; experiment: Second efficacy study: plasma total PCSK9 (ELISA); type: in vivo, mouse; conditions: 50 mg/kg BID PO, from day 7, sustained for the remaining 4 weeks
Text: as §1
In both studies, blood samples were collected at weekly intervals via tail vein sampling after fasting the mice for 4 h. […] Total plasma cholesterol levels were determined using a Cholesterol CHOD-PAP kit according to the manufacturer’s instructions. Plasma HDL-C levels were determined by first precipitating apoB-containing lipids using PEG 6000/glycine and then utilizing the Cholesterol CHOD-PAP kit ([35]). Non-HDL-C levels were determined by subtracting HDL-C levels from total cholesterol levels ([32]). Group-pooled lipoprotein profiles were determined by FPLC analysis using an AKTApurifier 10 FPLC system (GE Healthcare, Chicago, IL). […]

APOE∗3-Leiden.CETP mice [6] = experiment: Second efficacy study: body weight, food intake, plasma ALT and AST; type: in vivo, mouse; design: Body weight (mean ± SD) / Food intake (mean ± SD): unit not given here; conditions: NYX-PCSK9i 50 mg/kg BID PO, atorvastatin […]; for Plasma ALT / Plasma AST: group-pooled
Text: Animal experiments were approved by the governmental central committee on animal experiments (AVD5010020172064) and TNO’s animal welfare body (TNO-471 and TNO-482). Female APOE∗3-Leiden.CETP transgenic mice (11–16 weeks of age) were bred at the animal facility of TNO-InnoSer (Leiden, The Netherlands). Female animals were used in this study as they are more responsive to dietary cholesterol and fat than males and therefore typically develop atherosclerosis more rapidly than male APOE∗3-Leiden and APOE∗3-Leiden.CETP mice on cholesterol-containing diets ([33], [34]). Although measurements of atherosclerosis were not included as part of the present study, females were used with the prospect in mind that atherosclerosis studies will follow. The mice were housed under standard conditions that included 12 h light-dark cycles and access to a WTD and sterilized tap water ad libitum. Body weight, food intake, and clinical signs of behavior were monitored throughout the studies. […] Time t = 0 (weeks) was designated as the time at which mice were matched into groups after the 3-week run-in period in each efficacy study.
In both studies, blood samples were collected at weekly intervals via tail vein sampling after fasting the mice for 4 h. Blood samples were centrifugated (4500 g at 4°C), and the plasma was collected for the following analyses. Total plasma cholesterol levels were determined using a Cholesterol CHOD-PAP kit according to the manufacturer’s instructions. Plasma HDL-C levels were determined by first precipitating apoB-containing lipids using PEG 6000/glycine and then utilizing the Cholesterol CHOD-PAP kit ([35]). Non-HDL-C levels were determined by subtracting HDL-C levels from total cholesterol levels ([32]). Group-pooled lipoprotein profiles were determined by FPLC analysis using an AKTApurifier 10 FPLC system (GE Healthcare, Chicago, IL). Plasma PCSK9 levels were determined using a Mouse PCSK9 Quantikine ELISA kit as per the manufacturer’s protocol. ALT and AST levels of group-pooled samples were measured using the Roche Reflotron Plus System (Mannheim, Germany).

hepatic LDLR protein [7] = experiment: Second efficacy study: hepatic LDLR protein (Western blotting); type: in vivo, mouse; conditions: day 35; NYX-PCSK9i 50 mg/kg BID PO, atorvastatin […]
PCSK9-D374Y = target: T1, PCSK9-D374Y (Homo sapiens, UniProt Q8NBP7, D374Y); experiment: ex vivo lymphocyte LDLR surface expression assay with recombinant PCSK9-D374Y; type: cell-based; conditions: 4 μM, relative to PCSK9 D374Y and vehicle
T1 construct: purchased CycLex (Nagano, Japan); host or cells: added to primary human lymphocytes (PBMCs from a human donor)
T1 sequence (Q8NBP7 153-692 D374Y): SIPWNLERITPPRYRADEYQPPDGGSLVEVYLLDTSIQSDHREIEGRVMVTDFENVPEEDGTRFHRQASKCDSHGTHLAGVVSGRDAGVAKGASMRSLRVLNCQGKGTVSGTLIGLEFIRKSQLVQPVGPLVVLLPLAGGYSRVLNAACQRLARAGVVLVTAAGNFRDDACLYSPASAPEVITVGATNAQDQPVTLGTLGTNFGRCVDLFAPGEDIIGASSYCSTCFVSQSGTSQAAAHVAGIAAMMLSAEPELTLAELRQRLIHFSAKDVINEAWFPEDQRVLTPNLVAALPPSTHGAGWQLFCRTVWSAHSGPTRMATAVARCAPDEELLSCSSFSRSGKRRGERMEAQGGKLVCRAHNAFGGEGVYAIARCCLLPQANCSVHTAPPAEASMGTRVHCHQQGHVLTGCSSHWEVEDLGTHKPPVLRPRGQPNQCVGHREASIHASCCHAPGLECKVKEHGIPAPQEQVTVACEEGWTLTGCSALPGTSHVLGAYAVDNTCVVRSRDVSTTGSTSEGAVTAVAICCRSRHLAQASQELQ
T1 sequence (Q8NBP7 31-152 partner limits assumed): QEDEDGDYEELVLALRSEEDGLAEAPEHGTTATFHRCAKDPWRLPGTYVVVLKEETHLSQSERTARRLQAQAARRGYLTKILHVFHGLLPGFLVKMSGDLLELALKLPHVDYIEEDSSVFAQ
Text: Ethics was granted by the Comité de Protection des Personnes Sud Méditerranée (ID: 2020-A00196-33). Studies using human samples abided by the Declaration of Helsinki principles.

## Cc1cn(-c2cc(CN3CCC[C@H](N)C3)cc(NC(=O)c3cc(-c4ccccc4)ccn3)c2)cn1 [NYX-PCSK9i]
Hepatic LDLR protein [1]; 30 mg/kg BID PO
  increase in hepatic LDLR protein levels: 46%
Hepatic LDLR protein [1]; 50 mg/kg BID PO
  increase in hepatic LDLR protein levels: 51%
[2]
  increase in hepatic transcription of Pcsk9: 61%
  upregulation of hepatic Srebf2 transcript: 33%
[3]; iv, 5 mg/kg, 5 mg/kg IV
  AUC(0-t): 2010 ng·h/mL
[3]; po, 50 mg/kg, 50 mg/kg PO
  AUC(0-t): ~8100 ng·h/mL
[3]; sc, 50 mg/kg, 50 mg/kg SC
  AUC(0-t): 25500 ng·h/mL
[3]; 5 mg/kg IV
  clearance: 38.2 mL/min/kg
  half-life: 7.48 h
  AUC(0-inf): 2190 ng·h/mL
  MRT inf: 6.42 h
[3]; 5 mg/kg IV, read-out: Vss
  Vd: 14.7 L/kg
[3]; 50 mg/kg PO
  half-life: 6.29 h
  AUC(0-inf): 8700 ng·h/mL
  MRT inf: 7.07 h
[3]; 50 mg/kg SC
  half-life: 9.11 h
  AUC(0-inf): 30400 ng·h/mL
  MRT inf: 12.2 h
[3]; AUClast 50 mg/kg PO vs 5 mg/kg IV
  bioavailability: 40%
APOE∗3-Leiden.CETP mice [4]; data not shown
  share of fecal neutral sterols that was cholesterol: more than 95%
APOE∗3-Leiden.CETP mice [4]; final week of 35-day study
  cholesterol balance (dietary cholesterol intake minus fecal bile acids and neutral sterols): negative
[5]
  elevation of total plasma PCSK9 levels: approximately 2 fold
APOE∗3-Leiden.CETP mice [6]; day 0 (baseline)
  Body weight (mean ± SD): 21.9 ± 1.7
  Food intake (mean ± SD): 3.4 ± 0.3
  Plasma ALT: 91 U/L
  Plasma AST: 91 U/L
APOE∗3-Leiden.CETP mice [6]; day 7
  Food intake (mean ± SD): 3.5 ± 0.3
APOE∗3-Leiden.CETP mice [6]; day 14
  Body weight (mean ± SD): 23.0 ± 2.4
  Food intake (mean ± SD): 3.4 ± 0.0
  Plasma ALT: 84 U/L
  Plasma AST: 84 U/L
APOE∗3-Leiden.CETP mice [6]; day 21
  Body weight (mean ± SD): 22.4 ± 2.0
  Food intake (mean ± SD): 2.7 ± 0.0
APOE∗3-Leiden.CETP mice [6]; day 28
  Body weight (mean ± SD): 21.9 ± 2.1
  Food intake (mean ± SD): 2.7 ± 0.1
  Plasma ALT: 36 U/L
  Plasma AST: 36 U/L
APOE∗3-Leiden.CETP mice [6]; day 35
  Food intake (mean ± SD): 2.7 ± 0.3
  Plasma ALT: 42 U/L
  Plasma AST: 42 U/L
Hepatic LDLR protein [7]
  increase in hepatic LDLR protein expression: 45%
PCSK9-D374Y
  LDLR expression levels on surface of human lymphocytes: large and significant increase in LDLR expression levels
